Patent US20260176289A1, “SMALL MOLECULE INHIBITORS OF KRAS PROTEINS” (Merck Sharp & Dohme LLC, priority 2022, published 2026)
Like-named read-outs stand apart in the source and are kept apart here.

How the values were obtained:
KRAS-G12V = KRAS-G12V (Homo sapiens, UniProt P01116, G12V); assay: SOS-catalyzed nucleotide exchange assay (Procedure A, TR-FRET), KRAS-G12V; format: biochemical; settings: nucleotide exchange, read-out: KRAS G12V GNE IC50
In short: (§1)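 Signal ratio (520/495 nm, excitation 340 nm) reports Bodipy-GDP retention on biotinylated RAS after SOS-catalyzed exchange with 3 mM GTP. SOS was 40 nM, except 160 nM for G12V. Room-temperature exchange lasted 60 min (90 min for G12V), following a 60 min compound preincubation.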

KRAS-G13D = KRAS-G13D (Homo sapiens, UniProt P01116, G13D); assay: SOS-catalyzed nucleotide exchange assay (Procedure A, TR-FRET), KRAS-G13D; format: biochemical; settings: nucleotide exchange, Procedure A; read-out: KRAS G13D GNE IC50
Sequence of KRAS-G13D (P01116 with tags, fused parts or gaps isoform P01116-2 G13D): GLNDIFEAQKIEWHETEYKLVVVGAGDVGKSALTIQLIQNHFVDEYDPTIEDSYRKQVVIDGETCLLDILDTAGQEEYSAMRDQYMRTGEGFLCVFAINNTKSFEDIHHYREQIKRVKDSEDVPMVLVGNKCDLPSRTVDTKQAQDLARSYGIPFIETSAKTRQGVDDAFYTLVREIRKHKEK
Description: (§2) Procedure for SOS-Catalyzed Nucleotide Exchange Assay for KRAS-WT, G12C/D/V, G13D, HRAS, and NRAS (Procedure A)
(§3) Recombinant KRAS-G12C protein used in this assay has an additional triple mutation (C51S/C80L/C118S). Whereas KRAS-WT, G12D/V, G13D, HRAS and NRAS are in context of their WT protein sequence background. Specifically, the SOS-catalyzed nucleotide exchange assay utilizes a preformed TR-FRET complex containing a specific biotinylated RAS protein (KRAS-WT, G12C/V/D, G13D, HRAS, NRAS; described above) with Bodipy-GDP, and Terbium-streptavidin. Compounds are preincubated with this complex for 60 minutes. Subsequently, recombinant human SOS protein and unlabeled GTP are added to initiate the exchange reaction. Small molecule inhibitors stabilize the Bodipy-GDP complex whereas the untreated protein rapidly exchanges Bodipy-GDP for unlabeled GTP resulting in reduced TR-FRET signal.
(§4) To assemble the preformed TR-FRET complexes, each biotinylated RAS protein is diluted to 2 μM in an EDTA Buffer (20 mM HEPES pH 7.5, 50 mM sodium chloride, 10 mM EDTA, and 0.01% Tween) and incubated at room temperature for one hour. This mixture is then further diluted to 90 nM in an Assay Buffer (20 mM HEPES pH 7.5, 150 mM sodium chloride, 10 mM magnesium chloride, and 0.005% Tween) containing 15 nM of Terbium-Streptavidin (Invitrogen, catalog #PV3577) and 900 nM of Bodipy-GDP (Invitrogen, catalog #G22360) and incubated at room temperature for six hours. It should be noted that this preformed TR-FRET complex for each of the RAS protein were made ahead of time, aliquoted and stored at −80° C. until the day of the experiment.
(§5) Each test compound (10 mM stock in DMSO) is diluted in DMSO to make a final-10-point, 3-fold dilution and is acoustically dispensed into a 384-well assay plate (Corning, catalog #3820) using an Echo 550 (Labcyte). Each well of the assay plate receives 3 μL of a specific 3×RAS preformed TR-FRET complex and 3 μL of Assay Buffer and is incubated at room temperature for 60 minutes (preincubation time). Each well then receives 3 μL of 3×recombinant human SOS protein and GTP (Sigma, G8877) in Assay Buffer and is incubated at room temperature for 30 minutes (G13D), 60 minutes (KRAS WT/G12C/D, H/NRAS) or 90 minutes for G12V. The final reaction in each well of 9 μL consists of 3 mM GTP, specific Ras and SOS proteins in the following concentrations: KRAS-G12C/SOS=3 nM/40 nM, KRAS-WT and G12D/SOS=1 nM/40 nM, KRAS-G12V/SOS=1.25 nM/160 nM. KRAS-G13D/SOS=1.25 nM/0 nM, HRAS and NRAS=1.25 nM/40 nM.
(§6) The time-resolved fluorescence resonance energy transfer (TR-FRET) signal is measured on an Envision (PerkinElmer) plate reader: Excitation filter=340 nm; emission 1=495 nm; emission2=520 nm; dichroic mirror=D400/D505; delay time=[…]. The signal of each well is determined as the ratio of the emission at 520 nm to that at 495 nm. Percent effect of each well is determined after normalization to control wells containing DMSO (no effect) or a saturating concentration of inhibitor (max effect). The apparent effect as a function of compound concentration is fit to a four-parameter logistic equation.

[1] = target: KRAS-G12C (C51S/C80L/C118S) (Homo sapiens, UniProt P01116, C118S/C51S/C80L/G12C); assay: SOS-catalyzed nucleotide exchange assay (Procedure A, TR-FRET), KRAS-G12C; format: biochemical; settings: nucleotide exchange, Procedure A; read-out: KRAS G12C GNE IC50
Sequence of KRAS-G12C (C51S/C80L/C118S) (P01116 with tags, fused parts or gaps isoform P01116-2 G12C/C51S/C80L/C118S): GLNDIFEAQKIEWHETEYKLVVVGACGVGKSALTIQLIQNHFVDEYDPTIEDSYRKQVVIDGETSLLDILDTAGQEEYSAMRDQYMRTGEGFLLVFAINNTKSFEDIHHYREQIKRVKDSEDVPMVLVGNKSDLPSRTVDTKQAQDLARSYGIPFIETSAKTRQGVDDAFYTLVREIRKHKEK
Description: as §2, §3, §4, §5, §6

KRAS-WT = KRAS-WT (Homo sapiens, UniProt P01116); assay: SOS-catalyzed nucleotide exchange assay (Procedure A, TR-FRET), KRAS-WT; format: biochemical; settings: nucleotide exchange, read-out: KRAS WT GNE IC50
Sequence of KRAS-WT (P01116 with tags, fused parts or gaps isoform P01116-2): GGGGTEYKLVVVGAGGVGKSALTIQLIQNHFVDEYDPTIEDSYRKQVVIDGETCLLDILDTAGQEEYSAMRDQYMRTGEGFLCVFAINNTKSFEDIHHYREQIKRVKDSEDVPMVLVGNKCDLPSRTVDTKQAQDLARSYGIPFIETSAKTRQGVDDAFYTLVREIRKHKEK
In short: as §1

AsPC-1 cells = assay: Cellular phospho-ERK assay, AsPC-1 cells (homozygous KRAS-G12D); format: cell-based; settings: Homo sapiens, ASPC1, 2 h, read-out: AsPC1 pERK IC50
In short: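 ERK phosphorylation relative to total ERK is the endpoint, detected by AlphaScreen-based SureFire multiplex following a 2-hour treatment at 37 °C. Compounds are titrated 1:3 over ten points from 30 μM.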

KRAS-G12D = KRAS-G12D (Homo sapiens, UniProt P01116, G12D); assay: SOS-catalyzed nucleotide exchange assay (Procedure A, TR-FRET), KRAS-G12D; format: biochemical; settings: nucleotide exchange, read-out: KRAS G12D GNE IC50
Sequence of KRAS-G12D (P01116 with tags, fused parts or gaps isoform P01116-2 G12D): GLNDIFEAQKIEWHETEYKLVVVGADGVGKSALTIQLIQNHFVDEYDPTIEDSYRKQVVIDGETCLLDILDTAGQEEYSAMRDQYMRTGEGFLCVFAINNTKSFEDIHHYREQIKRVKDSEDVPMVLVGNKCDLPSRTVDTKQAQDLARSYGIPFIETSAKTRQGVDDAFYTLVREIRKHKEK
In short: as §1

Sequence of KRAS-G12V (P01116 with tags, fused parts or gaps isoform P01116-2 G12V): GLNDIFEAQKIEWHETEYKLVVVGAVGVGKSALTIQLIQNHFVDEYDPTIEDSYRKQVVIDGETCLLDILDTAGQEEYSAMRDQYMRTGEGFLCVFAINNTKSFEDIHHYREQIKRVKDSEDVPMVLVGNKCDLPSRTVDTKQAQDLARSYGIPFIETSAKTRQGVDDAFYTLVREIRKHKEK

| IC50 (KRAS-G12V) | IC50 (KRAS-G13D) | IC50 [1] | IC50 (KRAS-WT) | IC50 (AsPC-1 cells; KRAS-G12D, 2 hours) | IC50 (KRAS-G12D) | IC50 (AsPC-1 cells; 2 hours compound incubation) | Compound |
| --- | --- | --- | --- | --- | --- | --- | --- |
| 312 nM | 461 nM | 124 nM | 796 nM | 1810 nM | 423 nM | – | Cc1cc2[nH]ncc2c(-c2ncnc3c2sc2nc(OC[C@@]45CCCN4C[C@H](F)C5)nc(N4CCOC[C@@](C)(O)C4)c23)c1C(F)(F)F [Ex-276, (6S)-4-(7-(((2R,7aS)-2-fluorotetrahydro-1H-pyrrolizin-7a(5H)-yl)methoxy)-4-(6-methyl-5-(trifluoromethyl)-1H-indazol-4-yl)thieno[2,3-d:4,5-d′]dipyrimidin-9-yl)-6-methyl-1,4-oxazepan-6-ol] |
| 5630 nM | 3690 nM | 423 nM | 11100 nM | – | 11100 nM | 8560 nM | Cc1cc2[nH]ncc2c(-c2nccc3c2sc2nc(OC[C@@]45CCCN4C[C@H](F)C5)nc(NC4CCC4)c23)c1C(F)(F)F [Ex-191, N-cyclobutyl-2-(((2R,7aS)-2-fluorotetrahydro-1H-pyrrolizin-7a(5H)-yl)methoxy)-8-(6-methyl-5-(trifluoromethyl)-1H-indazol-4-yl)pyrido [4′,3′:4,5]thieno[2,3-d] pyrimidin-4-amine] |
| 192 nM | 409 nM | 121 nM | 418 nM | – | 283 nM | 30000 nM | Cc1cc2[nH]ncc2c(-c2nccc3c2sc2nc(OC[C@@]45CCCN4C[C@H](F)C5)nc(NC4CNC(=O)C4)c23)c1C(F)(F)F (stereo partly drawn) [Ex-192, 4-((2-(((2R,7aS)-2-fluoro-tetrahydro-1H-pyrrolizin-7a(5H)-yl)methoxy)-8-(6-methyl-5-(trifluorometh-yl)-1H-indazol-4-yl)pyrido [4′,3′:4,5]thieno[2,3-d]pyrimidin-4-yl)amino)-pyrrolidin-2-one] |
| 293 nM | 936 nM | 438 nM | 670 nM | – | 284 nM | 1260 nM | Cc1cc2[nH]ncc2c(-c2nccc3c2sc2nc(OC[C@@]45CCCN4C[C@H](F)C5)nc(N4CCOC[C@@](C)(O)C4)c23)c1C1CCCC1 [Ex-147, (6S)-4-(8-(5-cyclo-pentyl-6-methyl-1H-indazol-4-yl)-2-(((2R,7aS)-2-fluoro-tetrahydro-1H-pyr-rolizin-7a(5H)-yl)-methoxy)pyrido [4′,3′:4,5]thieno[2,3-d]pyrimidin-4-yl)-6-methyl-1,4-oxaze-pan-6-ol] |
| 203 nM | 296 nM | 136 nM | 455 nM | 1010 nM | 149 nM | – | C=C(C)c1c(C)cc2[nH]ncc2c1-c1nccc2c1oc1nc(OC[C@]3(CN(C)C)CC3(F)F)nc(N3CCOC[C@@](C)(O)C3)c12 [Ex-293, (6S)-4-(2-(((R)-1-((dimethylamino)methyl)-2,2-difluorocyclopropyl)meth-oxy)-8-(6-methyl-5-(prop-1-en-2-yl)-1H-indazol-4-yl)pyrido[4′,3′:4,5]furo[2,3-d]pyrimidin-4-yl)-6-methyl-1,4-oxazepan-6-ol] |
| 101 nM | 80.1 nM | 43.9 nM | 167 nM | 316 nM | 48.7 nM | – | Cc1cc2[nH]ncc2c(-c2nccn3c2cc2nc(OC[C@]4(CN(C)C)CC4(F)F)nc(N4CCOC[C@@](C)(O)C4)c23)c1C1CC1 [Ex-296, (S)-4-(9-(5-cyclopropyl-6-methyl-1H-indazol-4-yl)-2-(((R)-1-((dimethylamino)meth-yl)-2,2-difluorocyclopropyl)methoxy)pyrazino [1′,2′:1,5]pyrrolo[3,2-d]pyrimidin-4-yl)-6-methyl-1,4-oxazepan-6-ol] |
| 245 nM | 337 nM | 120 nM | 398 nM | – | 150 nM | 703 nM | Cc1cc2[nH]ncc2c(-c2nccc3c2sc2nc(OC[C@@]45CCCN4C[C@H](F)C5)nc(N4CCOC[C@@](C)(O)C4)c23)c1-c1cccs1 [Ex-138, (6S)-4-(2-(((2R, 7aS)-2-fluorotetra-hydro-1H-pyrrolizin-7a(5H)-yl)methoxy)-8-(6-methyl-5-(thio-phen-2-yl)-1H-ind-azol-4-yl)pyrido [4′,3′:4,5]thieno[2,3-d]pyrimidin-4-yl)-6-methyl-1,4-oxaze-pan-6-ol] |
| 476 nM | 970 nM | 418 nM | 1200 nM | – | 643 nM | 18300 nM | Cc1cc2[nH]ncc2c(-c2nccc3c2sc2nc(OC[C@@]45CCCN4C[C@H](F)C5)nc(N4CCCC5(CNC(=O)C5)C4)c23)c1C(F)(F)F (stereo partly drawn) [Ex-193, 7-(2-(((2R,7aS)-2-fluoro-tetrahydro-1H-pyrrolizin-7a(5H)-yl)methoxy)-8-(6-methyl-5-(trifluorometh-yl)-1H-indazol-4-yl)pyrido [4′,3′:4,5]thieno[2,3-d]pyrimidin-4-yl)-2,7-diaza-spiro[4.5]decan-3-one] |
| 64.6 nM | 38 nM | 184 nM | 94.6 nM | 1100 nM | 39.2 nM | – | Cc1cc2[nH]ncc2c(-c2nncc3c2sc2nc(OC[C@@]45CCCN4C[C@H](F)C5)nc(N4CCOC[C@@](C)(O)C4)c23)c1C(F)(F)F [Ex-277, (6S)-4-(2-(((2R,7aS)-2-fluorotetrahydro-1H-pyrrolizin-7a(5H)-yl)methoxy)-8-(6-methyl-5-(trifluoromethyl)-1H-indazol-4-yl)pyrimido[5′,4′:4,5]thieno[2,3-d]pyridazin-4-yl)-6-methyl-1,4-oxazepan-6-ol] |
| 128 nM | 377 nM | 159 nM | 319 nM | – | 129 nM | 663 nM | Cc1cc2[nH]ncc2c(-c2nccc3c2sc2nc(OC[C@@]45CCCN4C[C@H](F)C5)nc(N4CCOC[C@@](C)(O)C4)c23)c1-c1ccsc1 [Ex-139, (6S)-4-(2-(((2R, 7aS)-2-fluorotetra-hydro-1H-pyrrol-izin-7a(5H)-yl)meth-oxy)-8-(6-methyl-5-(thiophen-3-yl)-1H-indazol-4-yl)pyrido [4′,3′:4,5]thieno[2,3-d]pyrimidin-4-yl)-6-methyl-1,4-oxaze-pan-6-ol] |
